# Test results from US9447156B2, “Methods and compositions for inhibiting neddylation of proteins” (St. Jude Children's Research Hospital, priority 2011, dated 2016).
# Where two headings read alike, the source gives them in different places. Positions of bridges follow the written chain, without caps; N, C: chain ends. Non-standard residues stand in square brackets, D forms with d. Residues, ends and D or L forms follow the SMILES beside them. No end group written: not given here. *: point of attachment. S5 = C=CCCC[C@](C)(N)C(=O)O; For = O=C*
# Assays:
# hDcn1^P = molecular target: T1, hDcn1^P (Homo sapiens, UniProt Q96GG9); assay: ITC binding of Ubc12/Ube2f peptides to hDcn1^P; conditions: for ΔH: change in enthalpy; for ΔS: change in entropy
# T1 construct: hDcn1^P corresponds to residues 62 to the C-terminal residue 259 of hDcn1; GST (cleaved yes); made in house; host or cells: E. coli BL21(DE3)Gold
# T1 sequence (Q96GG9 62-259): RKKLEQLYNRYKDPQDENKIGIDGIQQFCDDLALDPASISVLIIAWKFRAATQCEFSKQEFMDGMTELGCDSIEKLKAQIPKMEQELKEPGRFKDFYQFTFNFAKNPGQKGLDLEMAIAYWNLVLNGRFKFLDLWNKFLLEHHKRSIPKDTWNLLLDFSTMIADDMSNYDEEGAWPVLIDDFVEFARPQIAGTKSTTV
# Procedure: (§1) Protein samples were buffer matched by desalting over a NAP-5 column (GE Healthcare) into 50 mM Hepes, 125 mM NaCl, 1 mM BME, pH 7.0 (ITC buffer). Peptides were dissolved by weight to a final concentration of 10 mM in ITC buffer and diluted further in ITC buffer as required for the experiments. Measurements were performed using a MicroCal ITC200. hDcn1^P or yDcn1^P were placed into the sample cell at a final concentration of 400 μM at 18° C. The peptide ligands (4 mM) were constantly injected (1.5 μl). The interval time between each injection was 3 minutes and the duration of each injection was 3 seconds. For titrations involving hE1 and yE1, proteins were placed into the sample cell at a final concentration of 25 μM at 22° C. Peptide ligands (250 μM) were constantly injected (2.5 μl). The interval time between each injection was three minutes and the duration of each injection was 5 seconds. For hCul1^ctd-Rbx1:hDcn1^P binding, proteins were buffer matched by desalting over a NAP-5 column in 25 mM Tris, 0.1 M NaCl, 1 mM BME, pH 7.6. hCul1^ctd-Rbx1 was placed into the sample cell at a final concentration of 55 μM at 22° C. hDcn1^P (550 μM) was constantly injected (2.5 μl). The interval time between each injection was 3 minutes and the duration of each injection was 5 seconds. Obtained spectra were evaluated using Origin (V 7.0) to determine heats of binding and Kd values.
# The affinity of various peptides for hDcn1^P, hDcn2^P, hDcn3^P, hDcn4^P, and hDcn5^P was tested using isothermal titration calorimetry as described in Example 1 and is provided in Table 29.
# [1] = molecular target: T2, hE1 for Nedd8 (APPBP1-UBA3) (Homo sapiens, UniProt Q8TBC4); assay: ITC binding of Ubc12 peptides to hE1; conditions: for Kd / ΔH / ΔS: ITC; for Kd: protein hE1, titrant Ubc12 peptide; for ΔH / ΔS: protein hE1; for ΔH: change in enthalpy; for ΔS: change in entropy
# T2 construct: made in house; host or cells: E. coli
# T2 sequence (Q8TBC4 22-463 limits assumed): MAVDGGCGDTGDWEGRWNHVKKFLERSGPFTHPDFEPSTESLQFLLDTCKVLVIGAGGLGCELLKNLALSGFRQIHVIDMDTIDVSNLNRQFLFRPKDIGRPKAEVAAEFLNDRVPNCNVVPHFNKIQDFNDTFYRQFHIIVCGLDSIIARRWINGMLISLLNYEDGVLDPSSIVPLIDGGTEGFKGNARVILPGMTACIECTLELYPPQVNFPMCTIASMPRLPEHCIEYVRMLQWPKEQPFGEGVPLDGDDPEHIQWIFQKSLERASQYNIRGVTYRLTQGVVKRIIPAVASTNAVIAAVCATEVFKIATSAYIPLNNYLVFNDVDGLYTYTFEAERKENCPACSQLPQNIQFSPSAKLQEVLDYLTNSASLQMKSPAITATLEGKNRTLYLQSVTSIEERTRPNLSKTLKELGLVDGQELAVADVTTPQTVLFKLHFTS
# T2 sequence (Q13564 1-534 partner): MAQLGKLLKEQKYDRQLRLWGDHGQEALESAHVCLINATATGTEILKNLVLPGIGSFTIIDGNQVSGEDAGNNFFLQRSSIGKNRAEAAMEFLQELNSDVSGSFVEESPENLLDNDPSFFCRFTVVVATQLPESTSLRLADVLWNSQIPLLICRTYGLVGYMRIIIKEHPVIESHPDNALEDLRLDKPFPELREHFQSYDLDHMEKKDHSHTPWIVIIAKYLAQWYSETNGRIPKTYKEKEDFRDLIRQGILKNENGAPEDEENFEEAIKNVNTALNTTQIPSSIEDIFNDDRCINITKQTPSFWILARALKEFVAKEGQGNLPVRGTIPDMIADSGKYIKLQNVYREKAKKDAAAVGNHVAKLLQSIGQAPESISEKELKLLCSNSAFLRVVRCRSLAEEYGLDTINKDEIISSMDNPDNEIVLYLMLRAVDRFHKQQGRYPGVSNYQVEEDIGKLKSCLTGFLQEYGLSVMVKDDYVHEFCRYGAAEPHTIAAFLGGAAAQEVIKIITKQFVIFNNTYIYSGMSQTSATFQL
# Procedure: as §1
# yDcn1^P = molecular target: T3, yDcn1^P (Saccharomyces cerevisiae, UniProt Q12395); assay: ITC binding of Ubc12 peptides to yDcn1^P; design: species or system S. cerevisiae; conditions: ITC, protein yDcn1^P
# T3 construct: made in house; host or cells: E. coli
# T3 sequence (Q12395 70-269): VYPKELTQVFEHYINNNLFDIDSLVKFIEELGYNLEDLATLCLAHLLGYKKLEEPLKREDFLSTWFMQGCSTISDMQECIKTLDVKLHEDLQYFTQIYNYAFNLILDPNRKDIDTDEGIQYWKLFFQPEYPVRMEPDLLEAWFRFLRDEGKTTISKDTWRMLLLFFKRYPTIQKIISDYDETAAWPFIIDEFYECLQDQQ
# Procedure: as §1, with “Measurements were performed using a MicroCal ITC200. hDcn1^P or yDcn1^P were placed into the sample cell at a final concentration of 400 μM at 18° C.” left out, “[…])” for “hDcn1^P (550 μM)”, “seconds.” for “seconds. Obtained spectra were evaluated using Origin (V 7.0) to determine heats of binding and Kd values.”
# [2] = Table 29, peptides with amidated carboxy-terminus, read-out: Binding Kd for hDcn1^P
# [3] = protein hDcn1^P, titrant Ubc12 peptide, read-out: Kd
Compound,ΔH (hDcn1^P; protein hDcn1^P),ΔS (hDcn1^P; protein hDcn1^P) [cal/mol/deg],Kd [1] [µM],ΔH [1],ΔS [1] [cal/mol/deg],also measured
MIKLFSLKQQKKEEESAGGTKGSSKK-NH2 [hUbc12^1−26],,,,,,Kd (hDcn1^P; [2]): > 200 µM
Ac-MIKLFSLKQQKKEEESAGGTKGSSKK-NH2 [Acetyl-hUbc12^1-26],"−6,107 cal/mol",5.84,0.943,"−9,425 cal/mol",−4.79,
CCCC[C@H](N)C(=O)N[C@H](C(=O)N[C@@H](CCCCN)C(=O)N[C@@H](CC(C)C)C(=O)N[C@@H](Cc1ccccc1)C(=O)N[C@@H](CO)C(=O)N[C@@H](CC(C)C)C(=O)N[C@@H](CCCCN)C(=O)N[C@@H](CCC(N)=O)C(=O)N[C@@H](CCC(N)=O)C(=O)N[C@@H](CCCCN)C(=O)N[C@@H](CCCCN)C(N)=O)[C@@H](C)CC [hUbc12^1−12 (NorLeu)],,,,,,Kd (hDcn1^P; [2]): > 400 µM
CC[C@H](C)[C@H](NC(=O)[C@H](CO)NC(=O)[C@H](CO)NC(=O)[C@H](CO)NC(=O)[C@H](CC(N)=O)NC(=O)[C@H](CCC(=O)O)NC(=O)[C@H](CC(N)=O)NC(=O)[C@H](CCC(=O)O)NC(=O)[C@H](CCCCN)NC(=O)[C@H](CCC(N)=O)NC(=O)[C@H](CCCCN)NC(=O)[C@H](CCCCN)NC(=O)[C@H](CCCCN)NC(=O)[C@H](CCC(N)=O)NC(=O)[C@H](CC(C)C)NC(=O)[C@H](CCC(N)=O)NC(=O)[C@H](CCCNC(=N)N)NC(=O)[C@H](CC(C)C)NC(=O)[C@H](CCCCN)NC(=O)[C@H](CC(C)C)NC(=O)[C@H](CCSC)NC=O)C(=O)N[C@@H](CCC(N)=O)C(=O)N1CCC[C@H]1C(=O)N[C@@H](CC(N)=O)C(N)=O [Formyl-yUbc12^1-24] (For-MLKLRQLQKKKQKENENSSSIQPN-NH2),,,,,,"ΔH (yDcn1^P; change in enthalpy): 2,824 cal/mol; ΔS (yDcn1^P; change in entropy): 33.4 cal/mol/deg"
Ac-IKLFSLKQQKKEEESAGGTKGSSKK-NH2 [Acetyl-hUbc12^2-26],"1,719 cal/mol",24.1,0.39,"−8,899 cal/mol",−1.24,Kd (hDcn1^P; [3]): > 100 µM
CC[C@H](C)[C@H](NC(=O)[C@H](CCSC)NC(C)=O)C(=O)N[C@@H](CCCCN)C(=O)N[C@@H](CC(C)C)C(=O)N[C@@H](Cc1ccccc1)C(=O)N[C@@H](CO)C(=O)N[C@@H](CC(C)C)C(=O)N[C@@H](CCCCN)C(=O)N[C@@H](CCC(N)=O)C(=O)N[C@@H](CCC(N)=O)C(=O)N[C@@H](CCCCN)C(=O)N[C@@H](CCCCN)C(N)=O [Acetyl-hUbc12^1-12],"−4,992 cal/mol",8.79,0.63,"−11,490 cal/mol",−11.0,
CC[C@H](C)[C@H](NC(=O)[C@H](CCSC)NC(C)=O)C(=O)N[C@@H](CCCCN)C(=O)N[C@@H](CC(C)C)C(=O)N[C@@]1(C)CCCC=CCCC[C@@](C)(C(=O)N[C@@H](CCC(N)=O)C(=O)N[C@@H](CCCCN)C(=O)N[C@@H](CCCCN)C(N)=O)NC(=O)[C@H](CCCCN)NC(=O)[C@H](CC(C)C)NC(=O)[C@H](CO)NC1=O [Acetyl-hUbc12^1-12 (5:9Staple)] (Ac-MIKL[S5]SLK[S5]QKK-NH2; staple 5-9),"−3,386 cal/mol",19.3,,,,
CC[C@H](C)[C@H](NC(=O)[C@H](CCSC)NC=O)C(=O)N[C@@H](CCCCN)C(=O)N[C@@H](CC(C)C)C(=O)N[C@@H](Cc1ccccc1)C(=O)N[C@@H](CO)C(=O)N[C@@H](CC(C)C)C(=O)N[C@@H](CCCCN)C(=O)N[C@@H](CCC(N)=O)C(=O)N[C@@H](CCC(N)=O)C(=O)N[C@@H](CCCCN)C(=O)N[C@@H](CCCCN)C(=O)N[C@@H](CCC(=O)O)C(=O)N[C@@H](CCC(=O)O)C(=O)N[C@@H](CCC(=O)O)C(=O)N[C@@H](CO)C(=O)N[C@@H](C)C(=O)NCC(=O)NCC(=O)N[C@H](C(=O)N[C@@H](CCCCN)C(=O)NCC(=O)N[C@@H](CO)C(=O)N[C@@H](CO)C(=O)N[C@@H](CCCCN)C(=O)N[C@@H](CCCCN)C(N)=O)[C@@H](C)O [Formyl-hUbcU^126] (For-MIKLFSLKQQKKEEESAGGTKGSSKK-NH2),"−4,893 cal/mol",5.79,,,,
"AcetylhUbc12^Ac1-12(5,9 Staple): Acetylated hUbc12 1-12 with Phe5 and Gln9 replaced with (S)-2-(4'-pentenyl)alanine, side-chains covalently linked (Ac-MIKL[S5]SLK[S5]QKK-NH2; staple 5-9)",,,,,,binding to E1 ([1]; data not shown): no longer binds E1
H-MIKLFSLKQQKKEEESAGGTKGSSKK-NH2 [hUbc12^1-26],"1,259 cal/mol",22.2,0.585,"−8,881 cal/mol",−1.99,Kd (hDcn1^P; [3]): > 130 µM
Ac-IKLFSLKQQKKEEESAGGTKGSSKK-NH2 [hUbc12^Ac−2−26],,,,,,Kd (hDcn1^P; [2]): > 150 µM
